Measurements from patent US9084758B2, “Antiviral compositions comprising ethanol extract of Tetracera scandens and use thereof” (The Catholic University of Korea Industry-Academic …, priority 2012, dated 2015).

Tests used:
[1] = system: human immunodeficiency virus (HIV); assay: Antiviral activity in HIV-infected (Nef substituted with EGFP) MT-4 cells: GFP fluorescence, HIV-1 p24 Antigen Capture Assay; format: cell-based; conditions: 1 nM, 3 days
Protocol: Thereafter, the cultured cells were centrifuged at 6,000 rpm for 3 minutes to obtain a cell pallet. Then, fluorescence intensity of a green fluorescence protein (GFP) secreted from the obtained cells was measured, a level of viral infection was confirmed using an HIV-1 p24 Antigen Capture Assay kit (Advanced BioScience Laboratories), and cell viability was determined using an MTT assay. 0.5% DMSO and 1 nM 3′-azido-3′-deoxy-thyminine (AZT) were used as the negative and positive controls, respectively.

[2] = biological target: HIV reverse transcriptase (Human immunodeficiency virus type 1 group M subtype B, UniProt P04585); assay: Inhibition of reverse transcriptase activity, Enzchek Reverse Transcriptase assay kit; format: biochemical; conditions: positive controls, FIG. 3

## Cc1cn([C@H]2C[C@H](N=[N+]=[N-])[C@@H](CO)O2)c(=O)[nH]c1=O [AZT, 3′-azido-3′-deoxy-thyminine]
[1]
  antiviral activity: 49.8%
[2]
  inhibition of reverse transcriptase activities (in words): not inhibited

## Cc1cn([C@H]2C[C@H](N=[N+]=[N-])[C@@H](CO[P@](=O)(O)O[P@](=O)(O)OP(=O)(O)O)O2)c(=O)[nH]c1=O [AZTTP]
[2]
  inhibition of reverse transcriptase activities (in words): increasingly expressed according to a concentration

## Cc1cc(C#N)cc(C)c1Oc1nc(Nc2ccc(C#N)cc2)nc(N)c1Br [Etravirine]
[2]
  inhibition of reverse transcriptase activities (in words): increasingly expressed according to a concentration
